Experiment: Kinetic inertness of [^225Ac(macropa)]^+: challenge with 50-fold excess La^3+
Type: physicochemical
Settings: 50-fold excess of La^3+, macropa 0.59 μM, RT, over 7 days
Procedure: General. Stock solutions of La(NO3)3 (0.001 M or 0.1 M) were prepared in H2O. To the radiolabeled samples containing macropa (10 μL of 10^−5 M stock; 1.0×10^−10 moles) or DOTA (10 μL of 10^−3 M stock; 1.0×10^−8 moles) and ^225Ac (10 μL, 26 kBq) in NH4OAc buffer (pH 6, 0.15 M, 150 μL), a 50-fold mole excess of La^3+ was added (5 μL, of 0.001 M or 0.1 M stock were added to solutions containing macropa and DOTA, respectively). The solutions were kept at room temperature and analyzed by iTLC at several time points over the course of 8 days. The iTLC plates were developed using citric acid (0.05 M, pH 5) as the eluent. Under these conditions, [^225Ac(macropa)]^+ and [^225Ac(DOTA)]^− remained at the baseline (RF=0) and any unchelated ^225Ac (^225Ac-citrate) migrated with the solvent front (RF=1). Percent of complex remaining intact was calculated by integrating area under the peaks on the radiochromatogram and dividing the counts associated with the ^225Ac-complex (RF=0) by the total counts integrated along the length of the iTLC plate.
The long half-life of ^225Ac necessitates its stable complex retention in vivo to avoid off-target damage to normal tissues arising from the release of free ^225Ac^3+. Furthermore, the stability of ^225Ac complexes against transmetalation and transchelation needs to be high. […]

## O=C([O-])c1cccc(CN2CCOCCOCCN(Cc3cccc(C(=O)[O-])n3)CCOCCOCC2)n1.[225Ac+3] [[^225Ac(macropa)]^+]
  ^225Ac complex remained intact by radio-TLC: 98%
